Assay results reported in EP0073505B1, “Benzo-heterocycles” (priority 1981, dated 1983).

Test system: Meerschweinchen
Experiment: Heart rate increase in the guinea pig, i.v.
Format: in vivo
Details: selectivity Broncholyse vs. Herzfrequenzsteigerung
Description: Für die pharmakologischen Prüfungen werden die üblichen Testmethoden und Versuchstiere oder Organe verwendet. Pharmakologisch sind die erfindungsgemässen Verbindungen gegenüber Handelsprodukten der gleichen Indikation zum Teil sehr deutlich unterschieden. Neben einer guten Wirkungsdauer zeigt sich z.B. eine besonders deutliche Selektivität im Verhältnis Broncholyse zu Herzfrequenzsteigerung. So ist z. […] Günstig sind im allgemeinen auch die Resorptionsverhältnisse. So ist der Resorptionsquotient [formula] z.B. für die Verbindung 7 der Tabelle 3 nur 1,1, so dass die orale Wirkung praktisch ebenso gross ist wie die intravenöse. Die LD50-Werte liegen, z.B. an der Maus, so weit über der therapeutischen Dosis, dass eine günstige therapeutische Breite gegeben ist.

With `CC[C@H](NC(C)C)[C@H](O)c1ccc(O)c2c1OCC(=O)N2` (relative stereo) [Beispiel 1] as the molecule, how does the “ED50 i.v. der Herzfrequenzsteigerung relative to ED50 i.v. der Broncholyse” value read?
Its value is “mehr als zehnmal so gross”.
